According to ChEMBL document CHEMBL3045426, “Synthesis, Antiviral and Antibacterial Activities of Isatin Mannich Bases” (Med Chem Res, 2005):
≈ marks a conversion by molar mass, not a printed value.

System: Vero
Assay: Cytotoxicity against Chlorocebus aethiops (African green monkey) Vero cells up to 62.5 ug/ml
Type: cell-based
Settings: chlorocebus sabaeus

| SMILES | Activity |
| --- | --- |
| CCn1cc(C(=O)O)c(=O)c2cc(F)c(N3CCN(CN4C(=O)/C(=N\c5ncc(Cc6cc(OC)c(OC)c(OC)c6)c(N)n5)c5cc(Cl)ccc54)C(C)C3)c(F)c21 (stereo not drawn) | Non-toxic |

System: Mycobacterium tuberculosis
Assay: Antimycobacterial activity against Mycobacterium tuberculosis H37Rv ATCC 27294
Type: functional
Settings: not given

| SMILES | MIC [µg/mL] |
| --- | --- |
| CCn1cc(C(=O)O)c(=O)c2cc(F)c(N3CCN(CN4C(=O)/C(=N\c5ncc(Cc6cc(OC)c(OC)c(OC)c6)c(N)n5)c5cc(Cl)ccc54)C(C)C3)c(F)c21 (stereo not drawn) | 1.56 (≈ 1.91 µM) |

System: Escherichia coli
Assay: Antibacterial activity against Escherichia coli NCTC 10418 infected in po dosed CF mouse compound administered 1 hr prior and 4 hr post infection
Type: functional
Settings: NCTC 10418, po

| SMILES | ED50 [mg/kg] |
| --- | --- |
| CCn1cc(C(=O)O)c(=O)c2cc(F)c(N3CCN(CN4C(=O)/C(=N\c5ncc(Cc6cc(OC)c(OC)c(OC)c6)c(N)n5)c5cc(Cl)ccc54)C(C)C3)c(F)c21 (stereo not drawn) | 1.25 |

System: not listed separately
Assay: Selectivity index, ratio of CC50 for human MT4 cells to EC50 for HIV1 3B infected in MT4 cells
Type: toxicity, cell-based
Settings: read-out: Ratio CC50/EC50

| SMILES | selectivity ratio |
| --- | --- |
| CCn1cc(C(=O)O)c(=O)c2cc(F)c(N3CCN(CN4C(=O)/C(=N\c5ncc(Cc6cc(OC)c(OC)c(OC)c6)c(N)n5)c5cc(Cl)ccc54)C(C)C3)c(F)c21 (stereo not drawn) | 3 |

System: Vibrio cholerae
Assay: Antimicrobial activity against Vibrio cholerae 01 after 18 to 20 hr by agar dilution method
Type: functional
Settings: 1

| SMILES | MIC [µg/mL] |
| --- | --- |
| CCn1cc(C(=O)O)c(=O)c2cc(F)c(N3CCN(CN4C(=O)/C(=N\c5ncc(Cc6cc(OC)c(OC)c(OC)c6)c(N)n5)c5cc(Cl)ccc54)C(C)C3)c(F)c21 (stereo not drawn) | 0.0095 (≈ 0.0116 µM) |

System: Priestia megaterium
Assay: Antimicrobial activity against Bacillus megaterium after 18 to 20 hr by agar dilution method
Type: functional
Settings: not given

| SMILES | MIC [µg/mL] |
| --- | --- |
| CCn1cc(C(=O)O)c(=O)c2cc(F)c(N3CCN(CN4C(=O)/C(=N\c5ncc(Cc6cc(OC)c(OC)c(OC)c6)c(N)n5)c5cc(Cl)ccc54)C(C)C3)c(F)c21 (stereo not drawn) | 0.019 (≈ 0.0232 µM) |

System: Enterobacter
Assay: Antimicrobial activity against Enterobacter after 18 to 20 hr by agar dilution method
Type: functional
Settings: not given

| SMILES | MIC [µg/mL] |
| --- | --- |
| CCn1cc(C(=O)O)c(=O)c2cc(F)c(N3CCN(CN4C(=O)/C(=N\c5ncc(Cc6cc(OC)c(OC)c(OC)c6)c(N)n5)c5cc(Cl)ccc54)C(C)C3)c(F)c21 (stereo not drawn) | 0.0095 (≈ 0.0116 µM) |

System: Citrobacter freundii
Assay: Antimicrobial activity against Citrobacter freundii after 18 to 20 hr by agar dilution method
Type: functional
Settings: not given

| SMILES | MIC [µg/mL] |
| --- | --- |
| CCn1cc(C(=O)O)c(=O)c2cc(F)c(N3CCN(CN4C(=O)/C(=N\c5ncc(Cc6cc(OC)c(OC)c(OC)c6)c(N)n5)c5cc(Cl)ccc54)C(C)C3)c(F)c21 (stereo not drawn) | 0.0047 (≈ 0.00575 µM) |

System: Salmonella enteritidis
Assay: Antimicrobial activity against Salmonella enterica subsp. enterica serovar Enteritidis after 18 to 20 hr by agar dilution method
Type: functional
Settings: not given

| SMILES | MIC [µg/mL] |
| --- | --- |
| CCn1cc(C(=O)O)c(=O)c2cc(F)c(N3CCN(CN4C(=O)/C(=N\c5ncc(Cc6cc(OC)c(OC)c(OC)c6)c(N)n5)c5cc(Cl)ccc54)C(C)C3)c(F)c21 (stereo not drawn) | 0.0095 (≈ 0.0116 µM) |

System: Salmonella typhimurium
Assay: Antimicrobial activity against Salmonella enterica subsp. enterica serovar Typhimurium after 18 to 20 hr by agar dilution method
Type: functional
Settings: not given

| SMILES | MIC [µg/mL] |
| --- | --- |
| CCn1cc(C(=O)O)c(=O)c2cc(F)c(N3CCN(CN4C(=O)/C(=N\c5ncc(Cc6cc(OC)c(OC)c(OC)c6)c(N)n5)c5cc(Cl)ccc54)C(C)C3)c(F)c21 (stereo not drawn) | 0.0381 (≈ 0.0466 µM) |

System: Proteus mirabilis
Assay: Antimicrobial activity against Proteus mirabilis after 18 to 20 hr by agar dilution method
Type: functional
Settings: not given

| SMILES | MIC [µg/mL] |
| --- | --- |
| CCn1cc(C(=O)O)c(=O)c2cc(F)c(N3CCN(CN4C(=O)/C(=N\c5ncc(Cc6cc(OC)c(OC)c(OC)c6)c(N)n5)c5cc(Cl)ccc54)C(C)C3)c(F)c21 (stereo not drawn) | 0.0763 (≈ 0.0934 µM) |

System: Proteus vulgaris
Assay: Antimicrobial activity against Proteus vulgaris after 18 to 20 hr by agar dilution method
Type: functional
Settings: not given

| SMILES | MIC [µg/mL] |
| --- | --- |
| CCn1cc(C(=O)O)c(=O)c2cc(F)c(N3CCN(CN4C(=O)/C(=N\c5ncc(Cc6cc(OC)c(OC)c(OC)c6)c(N)n5)c5cc(Cl)ccc54)C(C)C3)c(F)c21 (stereo not drawn) | 0.153 (≈ 0.187 µM) |

System: Edwardsiella tarda
Assay: Antimicrobial activity against Edwardsiella tarda after 18 to 20 hr by agar dilution method
Type: functional
Settings: not given

| SMILES | MIC [µg/mL] |
| --- | --- |
| CCn1cc(C(=O)O)c(=O)c2cc(F)c(N3CCN(CN4C(=O)/C(=N\c5ncc(Cc6cc(OC)c(OC)c(OC)c6)c(N)n5)c5cc(Cl)ccc54)C(C)C3)c(F)c21 (stereo not drawn) | 0.0763 (≈ 0.0934 µM) |

System: Escherichia coli
Assay: Antimicrobial activity against Escherichia coli NCTC 10418 after 18 to 20 hr by agar dilution method
Type: functional
Settings: not given

| SMILES | MIC [µg/mL] |
| --- | --- |
| CCn1cc(C(=O)O)c(=O)c2cc(F)c(N3CCN(CN4C(=O)/C(=N\c5ncc(Cc6cc(OC)c(OC)c(OC)c6)c(N)n5)c5cc(Cl)ccc54)C(C)C3)c(F)c21 (stereo not drawn) | 0.153 (≈ 0.187 µM) |

System: Salmonella typhi
Assay: Antimicrobial activity against Salmonella enterica subsp. enterica serovar Typhi after 18 to 20 hr by agar dilution method
Type: functional
Settings: not given

| SMILES | MIC [µg/mL] |
| --- | --- |
| CCn1cc(C(=O)O)c(=O)c2cc(F)c(N3CCN(CN4C(=O)/C(=N\c5ncc(Cc6cc(OC)c(OC)c(OC)c6)c(N)n5)c5cc(Cl)ccc54)C(C)C3)c(F)c21 (stereo not drawn) | 0.019 (≈ 0.0232 µM) |

System: Salmonella paratyphi
Assay: Antimicrobial activity against Salmonella enterica subsp. enterica serovar Paratyphi A after 18 to 20 hr by agar dilution method
Type: functional
Settings: not given

| SMILES | MIC [µg/mL] |
| --- | --- |
| CCn1cc(C(=O)O)c(=O)c2cc(F)c(N3CCN(CN4C(=O)/C(=N\c5ncc(Cc6cc(OC)c(OC)c(OC)c6)c(N)n5)c5cc(Cl)ccc54)C(C)C3)c(F)c21 (stereo not drawn) | 0.019 (≈ 0.0232 µM) |

System: Vibrio parahaemolyticus
Assay: Antimicrobial activity against Vibrio parahaemolyticus after 18 to 20 hr by agar dilution method
Type: functional
Settings: not given

| SMILES | MIC [µg/mL] |
| --- | --- |
| CCn1cc(C(=O)O)c(=O)c2cc(F)c(N3CCN(CN4C(=O)/C(=N\c5ncc(Cc6cc(OC)c(OC)c(OC)c6)c(N)n5)c5cc(Cl)ccc54)C(C)C3)c(F)c21 (stereo not drawn) | 0.0047 (≈ 0.00575 µM) |

System: Vibrio cholerae
Assay: Antimicrobial activity against Vibrio cholerae 0139 after 18 to 20 hr by agar dilution method
Type: functional
Settings: 139

| SMILES | MIC [µg/mL] |
| --- | --- |
| CCn1cc(C(=O)O)c(=O)c2cc(F)c(N3CCN(CN4C(=O)/C(=N\c5ncc(Cc6cc(OC)c(OC)c(OC)c6)c(N)n5)c5cc(Cl)ccc54)C(C)C3)c(F)c21 (stereo not drawn) | 0.0381 (≈ 0.0466 µM) |
